In patent US20090143469A1, “SALTS OF NATEGLINIDE” (priority 2002, published 2009):
Where two headings read alike, the source gives them in different places.

How the values were obtained:
Type in all cases: physicochemical
[1] = Gain in weight at 84% RH (hygroscopicity) of nateglinide salts; settings: for Gain % (gain in weight at 84% RH): 84% RH (relative humidity), * = XRPD changed, confirmed by Thermalgravimetry; for hygroscopicity (in words): different relative humidities
[2] = Bulk density of nateglinide salts
[3] = Solubility in water of nateglinide salts

Row | Compound | Gain % (gain in weight at 84% RH) [1] | Bulk Density [2] | Solubility Water [3] | further results
1 | CC(C)[C@H]1CC[C@H](C(=O)N[C@H](Cc2ccccc2)C(=O)O)CC1.NCCCCC(N)C(=O)O [Comp. No. 14] | 1.3% |  |  | 
2 | CC(C)[C@H]1CC[C@H](C(=O)N[C@H](Cc2ccccc2)C(=O)[O-])CC1.CC(C)[C@H]1CC[C@H](C(=O)N[C@H](Cc2ccccc2)C(=O)[O-])CC1.[Mg+2] [Comp. No. 11] | <0.1% | 0.21 g/mL | 0.45 mg/mL | hygroscopicity (in words) [1]: non-hygroscopic; water solubility compared with other forms (in words) [3]: comparable to that of the calcium analogue
3 | CC(C)[C@H]1CC[C@H](C(=O)N[C@H](Cc2ccccc2)C(=O)O)CC1.CNC[C@H](O)[C@@H](O)[C@H](O)[C@H](O)CO [Comp. No. 12] | <0.1% | 0.16 g/mL | 7.3 mg/mL | hygroscopicity (in words) [1]: non-hygroscopic; water solubility compared with other forms (in words) [3]: lower than that of the alkaline metal salts of nateglinide
4 | Lysine |  | 0.50 g/mL |  | 
5 | Ammonium |  | 0.20 g/mL | <0.2 mg/mL | 
6 | CC(C)[C@H]1CC[C@H](C(=O)N[C@H](Cc2ccccc2)C(=O)O)CC1.NC(CO)(CO)CO [Comp. No. 13] | <0.1% | 0.51 g/mL |  | Solubility Water ([3]; listed as TRIS): >40 mg/mL; Solubility Water ([3]; listed as tris(hydroxymethyl)-aminomethane salt of nateglinide): more than 40 mg/ml
7 | [Ca] [Calcium] |  | 0.24 g/mL | 0.54 mg/mL | 

Further lines, with some results ahead:

Row | Gain % (gain in weight at 84% RH) [1] | Bulk Density [2] | Solubility Water [3] | Compound | further results
8 | <0.1% |  |  | CC(C)C1CCC(C(=O)NC(Cc2ccccc2)C(=O)O)CC1.N (stereo not drawn) [Comp. No. 17] | 
9 | 1.19% |  |  | CC(C)[C@H]1CC[C@H](C(=O)N[C@H](Cc2ccccc2)C(=O)[O-])CC1.[Na+] [Compound No. 1] | 
10 |  | 0.18 g/mL |  | CC(C)[C@H]1CC[C@H](C(=O)N[C@H](Cc2ccccc2)C(=O)O)CC1 [Form B of nateglinide, N-(trans-4-isopropylcyclohexylcarbonyl)-D-phenylalanine, reference compound] | solubility [3]: 90 µg/mL
11 | 0.4% |  |  | CC(C)C1CCC(C(=O)NC(Cc2ccccc2)C(=O)[O-])CC1.CC(C)C1CCC(C(=O)NC(Cc2ccccc2)C(=O)[O-])CC1.[Ca+2] (stereo not drawn) [Compound No. 9] | 
12 |  | 0.14 g/mL | >40 mg/mL | CC(C)[C@H]1CC[C@H](C(=O)N[C@H](Cc2ccccc2)C(=O)[O-])CC1.[Na+] [Sodium] | 
13 |  | 0.17 g/mL | >40 mg/mL | [K+] [Potassium] | 
14 | <0.1% | 0.28 g/mL | 0.09 mg/mL | CC(C)[C@H]1CC[C@H](C(=O)N[C@H](Cc2ccccc2)C(=O)O)CC1 [Form H of nateglinide, N-(trans-4-isopropylcyclohexylcarbonyl)-D-phenylalanine, reference compound] | 
15 | 8.2* % |  |  | CC(C)C1CCC(C(=O)NC(Cc2ccccc2)C(=O)[O-])CC1.[K+] (stereo not drawn) [Compound No. 5] | 
